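Cells were grown in 96-well plates and exposed to each compound for 48 hours at five concentrations; endpoints were interpolated linearly between bracketing concentrations, or set to the highest concentration if not reached. At the GI50, growth is halved.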 Activity calls are given as the source filed them. No stated cut-off is given here; in the data, active = GI50 up to about 1.1 µM and inactive = higher.
Experiments:
Assay in all cases: NCI anticancer screen, dose series, 48 h
HOP-62 = test system: HOP-62
SNB-78 = test system: SNB-78
KM12 = test system: KM12
NCI-H460 = test system: NCI-H460
OVCAR-8 = test system: OVCAR-8
SW-620 = test system: SW-620
SF-539 = test system: SF-539
HCT-116 = test system: HCT-116
UACC-62 = test system: UACC-62
DMS-273 = test system: DMS-273
SK-MEL-5 = test system: SK-MEL-5
SK-MEL-2 = test system: SK-MEL-2
LOX IMVI = test system: LOX IMVI
786-0 = test system: 786-0
CCRF-CEM = test system: CCRF-CEM
TK-10 = test system: TK-10
SN12C = test system: SN12C
ACHN = test system: ACHN
HCC 2998 = test system: HCC 2998
SK-OV-3 = test system: SK-OV-3
HL-60 = test system: HL-60
UACC-257 = test system: UACC-257
HT-29 = test system: HT-29
M14 = test system: M14
A498 = test system: A498
SF-295 = test system: SF-295
KM-20L2 = test system: KM-20L2
M19-MEL = test system: M19-MEL
RPMI-8226 = test system: RPMI-8226
U-251 = test system: U-251
HOP-92 = test system: HOP-92
OVCAR-4 = test system: OVCAR-4
A549 = test system: A549
SK-MEL-28 = test system: SK-MEL-28
K562 = test system: K562
SNB-19 = test system: SNB-19
NCI-H522 = test system: NCI-H522
Malme-3M = test system: Malme-3M
MOLT-4 = test system: MOLT-4
COLO 205 = test system: COLO 205
OVCAR-3 = test system: OVCAR-3
SNB-75 = test system: SNB-75
LXFL 529 = test system: LXFL 529
HCT-15 = test system: HCT-15
RXF 631 = test system: RXF 631
DLD-1 = test system: DLD-1
CAKI-1 = test system: CAKI-1
SR = test system: SR
EKVX = test system: EKVX
HOP-18 = test system: HOP-18
OVCAR-5 = test system: OVCAR-5
IGROV-1 = test system: IGROV-1
UO-31 = test system: UO-31
NCI-H23 = test system: NCI-H23
SF-268 = test system: SF-268
DMS-114 = test system: DMS-114
RXF 393 = test system: RXF 393
XF498 = test system: XF498
NCI-H226 = test system: NCI-H226

Measured: GI50

CN(c1ccccc1)C(c1ccccc1)C(O)c1ccccc1 (centres undefined)
21.7 µM: HCT-15
inactive: HOP-62 20.4 µM | SNB-78 22.6 µM | KM12 17.9 µM | NCI-H460 20.1 µM | OVCAR-8 19.2 µM | SW-620 18.4 µM | SF-539 22.1 µM | HCT-116 18.6 µM | UACC-62 17.9 µM | DMS-273 18.7 µM | SK-MEL-5 19.4 µM | SK-MEL-2 16.7 µM | LOX IMVI 17 µM | 786-0 18.2 µM | CCRF-CEM 26.7 µM | TK-10 24.2 µM | SN12C 17.1 µM | ACHN 22.6 µM | HCC 2998 22.9 µM | SK-OV-3 22.6 µM | HL-60 15.5 µM | UACC-257 19.3 µM | HT-29 17.9 µM | M14 16.6 µM | A498 22 µM | SF-295 15.8 µM | KM-20L2 19.4 µM | M19-MEL 23.1 µM | RPMI-8226 20.8 µM | U-251 17.9 µM | HOP-92 29.9 µM | OVCAR-4 18.1 µM | A549 18.6 µM | SK-MEL-28 20.5 µM | K562 17.2 µM | SNB-19 16.8 µM | NCI-H522 20 µM | Malme-3M 16.3 µM | MOLT-4 12.8 µM | COLO 205 16.3 µM | OVCAR-3 17.3 µM | SNB-75 24.1 µM | LXFL 529 21 µM | RXF 631 18.8 µM | DLD-1 23.9 µM | CAKI-1 20.5 µM | SR 20.6 µM | EKVX 25.1 µM | HOP-18 14.9 µM | OVCAR-5 19.5 µM | IGROV-1 22.2 µM | UO-31 21.3 µM | NCI-H23 22.4 µM | SF-268 21.4 µM | DMS-114 20.9 µM

COc1ccccc1/C=C1\N=C(C)OC1=O
inactive: SNB-78 > 100 µM | KM12 > 100 µM | OVCAR-8 > 100 µM | SW-620 > 100 µM | UACC-62 > 100 µM | SK-MEL-5 > 100 µM | SK-MEL-2 > 100 µM | CCRF-CEM 56 µM | TK-10 > 100 µM | SN12C > 100 µM | HCC 2998 > 100 µM | SK-OV-3 > 100 µM | HT-29 > 100 µM | M14 > 100 µM | SF-295 > 100 µM | KM-20L2 > 100 µM | M19-MEL > 100 µM | U-251 > 100 µM | HOP-92 > 100 µM | OVCAR-4 > 100 µM | SK-MEL-28 > 100 µM | K562 > 100 µM | SNB-19 > 100 µM | NCI-H522 > 100 µM | RXF 393 > 100 µM | Malme-3M > 100 µM | MOLT-4 > 100 µM | COLO 205 > 100 µM | OVCAR-3 > 100 µM | RXF 631 > 100 µM | DLD-1 > 100 µM | CAKI-1 > 100 µM | SR > 100 µM | OVCAR-5 > 100 µM | IGROV-1 > 100 µM | UO-31 > 100 µM | XF498 > 100 µM | NCI-H23 > 100 µM
> 100 µM: HCT-15

O=C(CC(O)(c1ccccc1)c1ccc(Cl)cc1)NC(=O)c1ccccc1O (centres undefined)
4.12 µM: HCT-15
inactive: HOP-62 6.52 µM | SNB-78 27.1 µM | KM12 3.86 µM | NCI-H460 4.37 µM | OVCAR-8 4.54 µM | SW-620 18.7 µM | SF-539 11.6 µM | HCT-116 11.7 µM | UACC-62 6.04 µM | DMS-273 13.2 µM | SK-MEL-5 6.52 µM | SK-MEL-2 5.3 µM | LOX IMVI 9.2 µM | 786-0 10.5 µM | CCRF-CEM 4.41 µM | TK-10 13.2 µM | SN12C 3.76 µM | ACHN 4.49 µM | HCC 2998 4.99 µM | SK-OV-3 17.1 µM | HL-60 4.6 µM | UACC-257 10.3 µM | HT-29 18.8 µM | M14 12.4 µM | A498 1.95 µM | SF-295 4.4 µM | KM-20L2 14.8 µM | M19-MEL 18.6 µM | U-251 3.38 µM | HOP-92 2.13 µM | OVCAR-4 5.74 µM | A549 8.07 µM | SK-MEL-28 19.8 µM | K562 4.6 µM | SNB-19 4.47 µM | NCI-H522 3.16 µM | RXF 393 11.7 µM | Malme-3M 14.9 µM | MOLT-4 10 µM | COLO 205 14.4 µM | OVCAR-3 4.36 µM | SNB-75 6.44 µM | LXFL 529 4.35 µM | RXF 631 15.6 µM | NCI-H226 7.87 µM | DLD-1 11.8 µM | CAKI-1 3.95 µM | SR 11.6 µM | EKVX 20.7 µM | HOP-18 2.39 µM | OVCAR-5 1.99 µM | IGROV-1 5.75 µM | UO-31 2.42 µM | NCI-H23 6.5 µM | SF-268 7.28 µM | DMS-114 6.04 µM

COC1=NN2C(OC)(c3ccccc3)c3c(-c4ccccc4)sc(-c4ccccc4)c3C2(c2ccccc2)S1 (centres undefined)
inactive: HOP-62 > 10 µM | SNB-78 > 100 µM | KM12 > 100 µM | NCI-H460 > 100 µM | OVCAR-8 > 100 µM | SW-620 > 100 µM | SF-539 > 100 µM | HCT-116 > 100 µM | UACC-62 > 100 µM | DMS-273 > 100 µM | SK-MEL-2 > 100 µM | LOX IMVI > 100 µM | 786-0 > 100 µM | CCRF-CEM > 100 µM | TK-10 > 100 µM | SN12C > 100 µM | ACHN > 100 µM | HCC 2998 > 100 µM | SK-OV-3 > 100 µM | HL-60 > 100 µM | UACC-257 > 100 µM | HT-29 > 100 µM | M14 > 10 µM | A498 > 100 µM | SF-295 > 100 µM | U-251 > 100 µM | HOP-92 > 100 µM | A549 > 100 µM | SK-MEL-28 > 100 µM | K562 > 100 µM | SNB-19 > 100 µM | NCI-H522 > 100 µM | Malme-3M > 100 µM | MOLT-4 > 100 µM | COLO 205 > 100 µM | OVCAR-3 > 10 µM | SNB-75 > 100 µM | LXFL 529 > 100 µM | RXF 631 > 100 µM | DLD-1 > 100 µM | CAKI-1 > 100 µM | SR > 100 µM | OVCAR-5 > 100 µM | IGROV-1 > 100 µM | UO-31 > 100 µM | XF498 > 100 µM | NCI-H23 > 100 µM | SF-268 > 100 µM
> 100 µM: HCT-15

O=C1Nc2nc3ccccc3n2N=C2CCCC12 (centres undefined)
> 100 µM: HCT-15
inactive: HOP-62 > 100 µM | SNB-78 > 100 µM | KM12 > 100 µM | NCI-H460 > 100 µM | OVCAR-8 > 100 µM | SW-620 > 100 µM | SF-539 > 100 µM | HCT-116 > 100 µM | UACC-62 > 100 µM | DMS-273 > 100 µM | SK-MEL-5 > 100 µM | SK-MEL-2 > 100 µM | LOX IMVI > 100 µM | 786-0 > 100 µM | CCRF-CEM > 100 µM | TK-10 > 100 µM | SN12C > 100 µM | ACHN > 100 µM | HCC 2998 > 100 µM | SK-OV-3 > 100 µM | UACC-257 > 100 µM | HT-29 > 100 µM | M14 > 100 µM | A498 > 100 µM | SF-295 > 100 µM | KM-20L2 > 100 µM | M19-MEL > 100 µM | RPMI-8226 > 100 µM | U-251 > 100 µM | OVCAR-4 > 100 µM | A549 > 100 µM | SK-MEL-28 > 100 µM | K562 > 100 µM | SNB-19 > 100 µM | RXF 393 > 100 µM | Malme-3M > 100 µM | MOLT-4 > 100 µM | COLO 205 > 100 µM | OVCAR-3 > 100 µM | SNB-75 > 100 µM | LXFL 529 > 100 µM | RXF 631 > 100 µM | DLD-1 > 100 µM | CAKI-1 > 100 µM | EKVX > 100 µM | OVCAR-5 > 100 µM | IGROV-1 > 100 µM | UO-31 > 100 µM | XF498 > 100 µM | NCI-H23 > 100 µM | SF-268 > 100 µM | DMS-114 > 100 µM

From ChEMBL document CHEMBL1201862, “PubChem BioAssay data set” (2004)
